The nature of series [1]: Testing of peptides for macroscopic membrane formation (phase-contrast microscope, Congo Red staining). The format is physicochemical. An excerpt: The effect of length and sequence on membrane formation was examined using several peptides (Table 1 and Example 3). […] Very long peptides, e.g., of about 200 amino acids, may encounter problems due to insolubility and intramolecular interactions which destabilize membrane formation. […] The optimal lengths for membrane formation will probably vary with the amino acid composition.
The EAK12 and EAK16 tested for membrane formation were acetylated and aminylated at both N- and C-terminal ends. […] The peptides were initially dissolved in water (5 mg/ml) or in 23% acetonitrile (10 mg/ml). A volume of 5-10 microliters of the dissolved peptides were applied to the DMEM medium, PBS or water. The formation of the membrane was first observed under a phase-contrast microscope and then, by the naked eye after staining with Congo Red.

Series [2] relates to nerve growth factor-differentiated rat PC12 cells. It is filed as cell-based. The source says: The membranes also appear to be non-cytotoxic. The EAK16 peptide formed macroscopic membranes when added to a tissue culture of nerve growth factor-differentiated rat PC12 cells.
For the next series, the system named is 3T3 fibroblast cells. The experiment in a line: Cell attachment to biopolymer sheets, with serum or serum-free + cyclohexamide (Table 5). The format is cell-based, mouse. Also noted: key: ++++: strong attachment; +++: moderate attachment; ++: weak attachment; +/−: little or no attachment. On the procedure: 3T3 fibroblast cells were introduced to membranes of RAD16 and EAK16 in normal serum-containing medium or in serum-free medium containing 30 μg/ml cyclohexamide (cells used for this condition were pretreated in this medium for 2 hours before plating). Cells were allowed to attach to the membranes for 30 minutes, 1 and 8 hours at 37° C. The attached cells were shaken for 10 minutes on a rotary rocker at 60 r.p.m., then scored under phase contrast microscopy. The decrease in cells attached to the membrane in the serum-free condition reflects cell loss due to serum deprivation.

For another series, the system named is 3T3. The experiment in a line: Cell attachment to biopolymer sheets, normal or Ca++ and Mg++ free medium (Table 6). The arrangement: key: ++++: strong attachment; +++: moderate attachment; ++: weak attachment; +/−: little or no attachment. It is filed as cell-based, mouse. On the procedure: Cells were pretreated in serum-free medium containing 30 μg/ml cyclohexamide for 2 hours before introduction to the peptide membranes. The cells used for the calcium and magnesium-free condition were pre-equilibrated in Ca^++ and Mg^++ free medium containing 5 mM EDTA for 15 minutes before introduction to the peptide membranes. Cells were allowed to attach to the peptide membranes for 30 minutes, 1 and 8 hours at 37° C. The attached cells were shaken for […] on a rotary rocker at 60 r.p.m., then scored under phase contrast microscopy.

Another series has as its system PC12 cells. The experiment in a line: In vitro neurite outgrowth on peptide membranes. The format is cell-based, rat. How it is done: The suitability of these materials for supporting in vitro neurite outgrowth was tested by treating biomaterial-attached PC12 cells with nerve growth factor (NGF). This treatment induces PC12 cells to differentiate into sympathetic neurons which can send out long processes called neurites. There was a marked difference in the neurite promoting properties of the two materials tested (EAK16 and RAD16).
Nerve growth factor differentiated PC12 cells have been used extensively in studies of neurite outgrowth. PC12 cells upregulate the number of calcium-dependent and -independent cell adhesion receptors in response to nerve growth factor. Cell attachment and neurite outgrowth from nerve growth factor differentiated PC12 cells was examined on membranes of RAD16 and EAK16 in order to determine whether membranes containing RGD-like sequences would preferentially support these cell activities. Neurite outgrowth on peptide membranes is of interest for potential applications of nerve repair.
Untreated PC12 cells were introduced to peptide membranes of EAK16 and RAD16 suspended in 85% RMMP1, 10% heat inactivated horse serum, 5 fetal bovine serum. Half of the cells were treated with nerve growth factor (50 ng/ml, NGF) and were supplemented with NGF every 3-4 days for 14 days. […] The neurite outgrowth reached greater than 400 μm in length, approximately 15-20 times the cell body, following the contour of the matrices in a three dimensional network.

A short description of series [3]: Nucleotide hydrolysis activity. The format is biochemical. An excerpt:
In addition, the ability of small peptides such as EAK16 to self-assemble into membranes may be useful in origin of life studies related to cell membranes and cellular compartmentalization. […] This activity is probably due to the ability of lysine and glutamic acid side-chains to perform general acid and base catalysis.

Series [4] in a line: Ions tested for effectiveness at inducing membrane formation; conditions of membrane formation. It is filed as physicochemical. On the procedure:
Various metal cations were tested for effectiveness at inducing membrane formation from EAK16. […] The order of effectiveness of the monovalent cations appears to be Li^+>Na^+>K^+>Cs^+. Cs^+ produces the least amount of membranes and in addition, yields nonmembranous precipitates. The effectiveness of the monovalent cations appears to correlate inversely with the crystal radii of the ions: Li^+ (0.6 Å), Na^+ (0.95 Å), K^+ (1.33 Å), and Cs^+ (1.69 Å) (Pauling, 1960). A correlation is also seen with the hydrated radii of the ions: Li^+ (3.4 Å), Na^+ (2.76 Å), K^+ (2.32 Å), and Cs^+ (2.28 Å), and with the order of enthalpies of the monovalent cations (Pauling, 1960). It is not known at present if the monovalent metal cations act as a catalyst or if they are incorporated into the membrane. […] Thus, membrane formation appears to be independent of salt concentration over this wide range. Salt concentrations of less than 5 mM may also induce membrane formation, but at a slower rate. The initial concentration of the peptide is a significant factor in the size and thickness of the membrane formed. In general, the higher the peptide concentration, the higher the extent of membrane formation. Membranes can form from initial peptide concentrations as low as 0.5 mM or 1 mg/ml. However, membranes formed at higher initial peptide concentrations (about 10 mg/ml) are thicker and thus, likely to be stronger. Therefore, it is preferable when producing the membranes to add peptide to a salt solution, rather than to add salt to a peptide solution. Formation of the membranes is very fast, on the order of a few minutes, and seems to be irreversible (see below). The process is unaffected by pH≦12 (the peptides tend to precipitate out at pH above 12), and by temperature. The membranes can form at temperatures in the range of 4 to 90° C. Formation of the membranes is inhibited by the presence of divalent metal cations at concentrations equal to or greater than 100 μM, which promote unstructured aggregation rather than membrane formation, and by sodium dodecyl sulfate (SDS) at a concentration of at least 0.1%.

Entries after “also recorded” stand apart in the source; their conditions may differ. Residues, ends and D or L forms follow the SMILES beside them.

For `CC(=O)N[C@@H](C)C(=O)N[C@@H](CCC(=O)O)C(=O)N[C@@H](C)C(=O)N[C@@H](CCC(=O)O)C(=O)N[C@@H](C)C(=O)N[C@@H](CCCCN)C(=O)N[C@@H](C)C(=O)N[C@@H](CCCCN)C(=O)N[C@@H](C)C(=O)N[C@@H](CCC(=O)O)C(=O)N[C@@H](C)C(=O)N[C@@H](CCC(=O)O)C(=O)N[C@@H](C)C(=O)N[C@@H](CCCCN)C(=O)N[C@@H](C)C(=O)N[C@@H](CCCCN)C(N)=O` [EAK16] (Ac-AEAEAKAKAEAEAKAK-NH2), the “formation of macroscopic membranes” value in series [1] (identical conditions, in words) is “could undergo self-assembly”. Besides, the “membranous structure in Water” value in series [1] (water) is on record as “−”. Besides, the “effect on appearance or rate of growth of the cells” value in series [2] is given as “did not affect the appearance or rate of growth of the cells”. The cell attachment entry in the series on 3T3 fibroblast cells (3T3, 30 min, medium with serum, no cyclohexamide) is recorded as “++++”; in the series with 3T3 fibroblast cells (3T3, 30 min, serum-free medium, + cyclohexamide), “++++”; in the series on 3T3 fibroblast cells (3T3, 60 min, medium with serum, no cyclohexamide), “++++”; in the series with 3T3 fibroblast cells (3T3, 60 min, serum-free medium, + cyclohexamide) it was “++++”; in the series with 3T3 fibroblast cells (3T3, 8 hrs, medium with serum, no cyclohexamide) it was “++++”; with 3T3 fibroblast cells (3T3, 8 hrs, serum-free medium, + cyclohexamide), “++”. For the same compound, the cell attachment result is reported as “++++” with 3T3 (3T3, 30 min, Ca^++ & Mg^++ free, EDTA serum-free + Cyclohex); “++++” with 3T3 (3T3, 30 min, Normal Ca^++ & Mg^++ serum-free + Cyclohex); “++++” in the series with 3T3 (3T3, 60 min, Ca^++ & Mg^++ free, EDTA serum-free + Cyclohex); “++++” in the series on 3T3 (3T3, 60 min, Normal Ca^++ & Mg^++ serum-free + Cyclohex). In addition, in the series with PC12 cells (NGF-treated PC12 cells on membranes), the “neurite outgrowth of NGF-treated PC12 cells, in words” value is given as “little neurite processes; also recorded: little neurite outgrowth”. The “Neurite outgrowth, untreated, 14 days” value in the series on PC12 cells (PC12 cells without NGF, 14 days) is given as “− (no neurite outgrowth)”. In series [3], the nucleotide hydrolysis activity result was “partial nucleotide hydrolysis activity”. In series [4], the “effect of divalent cations on membrane formation” value was “divalent cations primarily induce unstructured aggregates”. The “effect of monovalent metal cations on membrane formation” value in series [4] was “monovalent metal cations induce membrane formation”. Moreover, the “order of effectiveness of the monovalent cations” value in series [4] was “Li^+>Na^+>K^+>Cs^+”. Also, the “effect of anions and organic ions on membrane formation” value in series [4] (acetate, Cl^−, SO4^−2, PO4^−2, NH4^+ and Tris-Cl) is on record as “not found to induce membrane formation”.

The record behind these values is US6800481B1, “Stable macroscopic membranes formed by self-assembly of amphiphilic peptides and uses therefor” (priority 1992, dated 2004).
